Laboratory results reported in US12558428B2, “Heterobifunctional compounds and their use in treating disease” (Halda Therapeutics OpCo, Inc., priority 2024, dated 2026).
Like-named read-outs stand apart in the source and are kept apart here.

What was measured:
Format in all cases: cell-based
[1] = system: T-Rex 293 cells having increased expression of estrogen receptor alpha protein; experiment: Cellular growth inhibition assay, T-Rex 293 cells, (+) doxycycline; conditions: 72 hours
Outline: (§1)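 Cells of an inducible ERα-expressing T-Rex 293 clone are seeded in charcoal-dextran FBS medium with or without 3 ng/mL doxycycline, then treated after 24 h with compound dilutions (0.5% DMSO) for 72 h. Growth inhibition is measured by CellTiter-Glo luminescence and expressed as GI50.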

[2] = system: MCF7 cells (ATCC #HTB-22); experiment: Cellular growth inhibition assay, MCF7 cells purchased from ATCC; conditions: Table 8-A, MCF7 cells purchased from ATCC, six days, CellTiter-Glo, read-out: GI50
Outline: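 GI50 values come from a four-parameter fit of CellTiter-Glo 2.0 luminescence after six days of compound exposure at 37° C. Seeding density depended on the source: 225 cells/well for ECACC MCF7, 1,500 for ATCC. Medium was RPMI 1640 with 10% FBS and 0.2 U/ml insulin.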

[3] = system: T-Rex 293 cells lacking increased expression of estrogen receptor alpha protein; experiment: Cellular growth inhibition assay, T-Rex 293 cells, (−) doxycycline; conditions: 72 hours
Outline: as §1

[4] = T-REx-293, 72 h, T-Rex 293 cells with doxycycline-induced ERα expression, CellTiter-Glo 2.0, read-out: (+) Dox TRex ERa (GI50)
[5] = T-REx-293, 72 h, T-Rex 293 cells without doxycycline, CellTiter-Glo 2.0, read-out: (−) Dox TRex ERa (GI50)
[6] = T-REx-293, 72 h, Table 7-A, T-Rex 293 cells with doxycycline (increased ERα expression), CellTiter-Glo, read-out: (+) Dox GI50
[7] = T-REx-293, 72 h, Table 7-A, T-Rex 293 cells without doxycycline (lacking increased ERα expression), CellTiter-Glo, read-out: (−) Dox GI50

Row | SMILES | GI50 [2] | GI50 ([2]; Homo sapiens, MCF7, 144 h) | GI50 ([1]; Table 7-A, T-Rex 293 cells with doxycycline (increased ERα expression), CellTiter-Glo, read-out: (+) Dox GI50) | GI50 ([3]; Table 7-A, T-Rex 293 cells without doxycycline (lacking increased ERα expression), CellTiter-Glo, read-out: (−) Dox GI50) | GI50 [1, 4] | GI50 [3, 5] | GI50 [1, 6] | GI50 [3, 7]
1 | CCN(Cc1ccc(CCN2CC[C@@H](OCCOCCOc3ccc(C4=N[C@@H](C)c5nnc(C)n5-c5sc(C)c(C)c54)cc3)C2)cc1)c1cc(OC)ccc1C1CCc2cc(O)ccc2C1 (stereo partly drawn) [I-34b, (S)-6-(2-(ethyl(4-(2-((R)-3-(2-(2-(4-((S)-2,3,6,9-tetramethyl-6H-thieno[3,2-f][1,2,4]triazolo[4,3-a][1,4]diazepin-4-yl)phenoxy)ethoxy)ethoxy)pyrrolidin-1-yl)ethyl)benzyl)amino)-4-methoxyphenyl)-5,6,7,8-tetrahydronaphthalen-2-ol] | 50 to 500 nM |  | < 50 nM | 500 to 2500 nM |  |  |  | 
2 | Cn1cc(-c2cc(C(C)(C)O)ccc2Oc2ccc(N3CCC4(CCN(CCOc5ccc(C(=O)c6c(-c7ccc(O)cc7)sc7cc(O)ccc67)cc5)CC4)C3)cc2)c2cc[nH]c2c1=O [I-35, 4-(2-(4-(8-(2-(4-(6-hydroxy-2-(4-hydroxyphenyl)benzo[b]thiophene-3-carbonyl)phenoxy)ethyl)-2,8-diazaspiro[4.5]decan-2-yl)phenoxy)-5-(2-hydroxypropan-2-yl)phenyl)-6-methyl-1,6-dihydro-7H-pyrrolo[2,3-c]pyridin-7-one] |  | < 50 nM |  |  | < 50 nM | < 50 nM |  | 
3 | Cc1sc2c(c1C)C(c1ccc(OCCOCCCN3CC[C@H](Oc4ccc(C5=C(c6ccc(Cl)cc6Cl)CCCc6cc(O)ccc65)cc4)C3)cc1)=N[C@@H](C)c1nnc(C)n1-2 [I-36, 8-(2,4-dichlorophenyl)-9-(4-(((S)-1-(3-(2-(4-((S)-2,3,6,9-tetramethyl-6H-thieno[3,2-f][1,2,4]triazolo[4,3-a][1,4]diazepin-4-yl)phenoxy)ethoxy)propyl)pyrrolidin-3-yl)oxy)phenyl)-6,7-dihydro-5H-benzo[7]annulen-3-ol] |  | 500 to 2500 nM |  |  | 500 to 2500 nM | 500 to 2500 nM |  | 
4 | Cc1sc2c(c1C)C(c1ccc(CC3CC4(CCCN(c5ccc([C@@H]6c7ccc(O)cc7CC[C@@H]6c6ccccc6)cc5)C4)C3)cc1)=N[C@@H](C)c1nnc(C)n1-2 (stereo partly drawn) [I-44] |  | 500 to 2500 nM |  |  |  |  | 50 to 500 nM | 500 to 2500 nM
5 | Cc1sc2c(c1C)C(c1ccc(C#CC3CC4(CCN(c5ccc([C@@H]6c7ccc(O)cc7CC[C@@H]6c6ccccc6)cc5)CC4)C3)cc1)=N[C@@H](Cc1ncco1)c1nnc(C)n1-2 [I-46] |  | 50 to 500 nM |  |  |  |  | < 50 nM | > 2500 nM
6 | Cc1sc2c(c1C)C(c1ccc(C#CC3CC4(CCN(c5ccc([C@@H]6c7ccc(O)cc7CC[C@@H]6c6ccccc6)cc5)CC4)C3)cc1)=N[C@@H](C)c1nnc(C)n1-2 [I-47] |  | 500 to 2500 nM |  |  |  |  | 50 to 500 nM | > 2500 nM
7 | Cc1sc2c(c1C)C(c1ccc(OCCOCCCN3CC(Nc4ccc([C@@H]5c6ccc7n[nH]cc7c6C[C@@H](C)N5CC(F)(F)F)nc4)C3)cc1)=N[C@@H](C)c1nnc(C)n1-2 [I-57] |  | < 50 nM |  |  |  |  | < 50 nM | 500 to 2500 nM
8 | CC1=C(c2c(F)cc(F)cc2F)[C@H](c2ccc(OCCN3CC(COCCOc4ccc(C5=N[C@@H](C)c6nnc(C)n6-c6sc(C)c(C)c65)cc4)C3)cc2)Oc2ccc(O)cc21 [I-59] |  | 50 to 500 nM |  |  |  |  | 50 to 500 nM | 500 to 2500 nM
9 | CC1=C(c2ccc(O)cc2)[C@H](c2ccc(OCCN3CC[C@@H](OCCOCCOc4ccc(C5=N[C@@H](C)c6nnc(C)n6-c6sc(C)c(C)c65)cc4)C3)cc2)Oc2cc(O)ccc21 [I-60] |  | 50 to 500 nM |  |  |  |  | 50 to 500 nM | 500 to 2500 nM
10 | Cc1sc2c(c1C)C(c1ccc(CC3CC4(CCN(c5ccc([C@@H]6c7ccc(O)cc7CC[C@@H]6c6ccccc6)cc5)CC4)C3)cc1)=N[C@@H](Cc1ncco1)c1nnc(C)n1-2 [I-62, (5R,6S)-6-phenyl-5-(4-(2-(4-((S)-2,3,9-trimethyl-6-(oxazol-2-ylmethyl)-6H-thieno[3,2-f][1,2,4]triazolo[4,3-a][1,4]diazepin-4-yl)benzyl)-7-azaspiro[3.5]nonan-7-yl)phenyl)-5,6,7,8-tetrahydronaphthalen-2-ol] |  | > 2500 nM |  |  |  |  | 50 to 500 nM | 500 to 2500 nM

Continued, in another order:

Row | GI50 [2] | GI50 ([2]; Homo sapiens, MCF7, 144 h) | SMILES | GI50 ([1]; Table 7-A, T-Rex 293 cells with doxycycline (increased ERα expression), CellTiter-Glo, read-out: (+) Dox GI50) | GI50 ([3]; Table 7-A, T-Rex 293 cells without doxycycline (lacking increased ERα expression), CellTiter-Glo, read-out: (−) Dox GI50) | GI50 [1, 4] | GI50 [3, 5] | GI50 [1, 6] | GI50 [3, 7]
11 |  | 500 to 2500 nM | Cc1sc2c(c1C)C(c1ccc(N3CCN(CC4CCN(c5ccc([C@@H]6c7ccc(O)cc7CC[C@@H]6c6ccccc6)cc5)CC4)CC3)cc1)=N[C@H](Cc1ncco1)c1nnc(C)n1-2 [III-1, (5R,6S)-6-phenyl-5-(4-(4-((4-(4-((R)-2,3,9-trimethyl-6-(oxazol-2-ylmethyl)-6H-thieno[3,2-f][1,2,4]triazolo[4,3-a][1,4]diazepin-4-yl)phenyl)piperazin-1-yl)methyl)piperidin-1-yl)phenyl)-5,6,7,8-tetrahydronaphthalen-2-ol] |  |  |  |  | > 2500 nM | > 2500 nM
12 |  | 500 to 2500 nM | Cc1sc2c(c1C)C(c1ccc(N3CCN(CC4CCN(c5ccc([C@H]6c7ccc(O)cc7CC[C@H]6c6ccccc6)cc5)CC4)CC3)cc1)=N[C@H](Cc1ncco1)c1nnc(C)n1-2 [III-2, (5S,6R)-6-phenyl-5-(4-(4-((4-(4-((R)-2,3,9-trimethyl-6-(oxazol-2-ylmethyl)-6H-thieno[3,2-f][1,2,4]triazolo[4,3-a][1,4]diazepin-4-yl)phenyl)piperazin-1-yl)methyl)piperidin-1-yl)phenyl)-5,6,7,8-tetrahydronaphthalen-2-ol] |  |  |  |  | > 2500 nM | > 2500 nM
13 |  | 50 to 500 nM | Cc1sc2c(c1C)C(c1ccc(N3CCN(CC4CCN(c5ccc([C@H]6c7ccc(O)cc7CC[C@H]6c6ccccc6)cc5)CC4)CC3)cc1)=N[C@@H](Cc1ncco1)c1nnc(C)n1-2 [III-3, (5S,6R)-6-phenyl-5-(4-(4-((4-(4-((S)-2,3,9-trimethyl-6-(oxazol-2-ylmethyl)-6H-thieno[3,2-f][1,2,4]triazolo[4,3-a][1,4]diazepin-4-yl)phenyl)piperazin-1-yl)methyl)piperidin-1-yl)phenyl)-5,6,7,8-tetrahydronaphthalen-2-ol] |  |  |  |  | 50 to 500 nM | 500 to 2500 nM
14 |  | > 2500 nM | Cc1sc2c(c1C)C(c1ccc(CC3CC4(CCN(c5ccc([C@@H]6c7ccc(O)cc7CC[C@@H]6c6ccccc6)cc5)CC4)C3)cc1)=N[C@H](Cc1ncco1)c1nnc(C)n1-2 [III-4, (5R,6S)-6-phenyl-5-(4-(2-(4-((R)-2,3,9-trimethyl-6-(oxazol-2-ylmethyl)-6H-thieno[3,2-f][1,2,4]triazolo[4,3-a][1,4]diazepin-4-yl)benzyl)-7-azaspiro[3.5]nonan-7-yl)phenyl)-5,6,7,8-tetrahydronaphthalen-2-ol] |  |  |  |  | 500 to 2500 nM | > 2500 nM
15 |  | < 50 nM | Cc1sc2c(c1C)C(c1ccc(N3CCC(CN4CCN(c5ccc([C@@H]6c7ccc(O)cc7CC[C@@H]6c6ccccc6)cc5)CC4)CC3)cc1)=N[C@@H](C)c1nnc(C)n1-2 [III-5] |  |  |  |  | < 50 nM | 500 to 2500 nM
16 |  | 50 to 500 nM | Cc1sc2c(c1C)C(c1ccc(N3CCC(CN4CCN(c5ccc([C@H]6c7ccc(O)cc7CC[C@H]6c6ccccc6)cc5)CC4)CC3)cc1)=N[C@@H](C)c1nnc(C)n1-2 [III-6] |  |  |  |  | 50 to 500 nM | 500 to 2500 nM
17 |  | 50 to 500 nM | Cc1sc2c(c1C)C(c1ccc(N3CCC(N4CC(Oc5ccc([C@@H]6c7ccc(O)cc7CC[C@@H]6c6ccccc6)cc5)C4)CC3)cc1)=N[C@@H](C)c1nnc(C)n1-2 [III-7] |  |  |  |  | 50 to 500 nM | 500 to 2500 nM
18 |  | 50 to 500 nM | Cc1sc2c(c1C)C(c1ccc(N3CCC(N4CC(Oc5ccc([C@H]6c7ccc(O)cc7CC[C@H]6c6ccccc6)cc5)C4)CC3)cc1)=N[C@@H](C)c1nnc(C)n1-2 [III-8] |  |  |  |  | 500 to 2500 nM | 500 to 2500 nM
19 |  | 50 to 500 nM | Cc1sc2c(c1C)C(c1ccc(N3CCC(CN4CC(COc5ccc([C@H]6c7ccc(O)cc7CC[C@H]6c6ccccc6)cc5)C4)CC3)cc1)=N[C@@H](C)c1nnc(C)n1-2 [III-9] |  |  |  |  | < 50 nM | 50 to 500 nM
20 |  | 50 to 500 nM | Cc1sc2c(c1C)C(c1ccc(N3CCC(CN4CC(COc5ccc([C@@H]6c7ccc(O)cc7CC[C@@H]6c6ccccc6)cc5)C4)CC3)cc1)=N[C@@H](C)c1nnc(C)n1-2 [III-10] |  |  |  |  | < 50 nM | 50 to 500 nM
21 |  | 50 to 500 nM | Cc1sc2c(c1C)C(c1ccc(N3CC4(CCN(CC5CCN(c6ccc([C@H]7c8ccc(O)cc8CC[C@H]7c7ccccc7)cc6)CC5)CC4)C3)cc1)=N[C@@H](C)c1nnc(C)n1-2 [III-11] |  |  |  |  | < 50 nM | 50 to 500 nM
22 |  | 50 to 500 nM | Cc1sc2c(c1C)C(c1ccc(N3CC4(CCN(CC5CCN(c6ccc([C@@H]7c8ccc(O)cc8CC[C@@H]7c7ccccc7)cc6)CC5)CC4)C3)cc1)=N[C@@H](C)c1nnc(C)n1-2 [III-12] |  |  |  |  | < 50 nM | 500 to 2500 nM
23 |  | 500 to 2500 nM | Cc1sc2c(c1C)C(c1ccc(CC3CC4(CCCN(c5ccc([C@H]6c7ccc(O)cc7CC[C@H]6c6ccccc6)cc5)C4)C3)cc1)=N[C@@H](C)c1nnc(C)n1-2 (stereo partly drawn) [III-13] |  |  |  |  | 500 to 2500 nM | > 2500 nM
24 |  | 500 to 2500 nM | Cc1sc2c(c1C)C(c1ccc(CC3CC4(CCN(c5ccc([C@@H]6c7ccc(O)cc7CC[C@@H]6c6ccccc6)cc5)CC4)C3)cc1)=N[C@@H](C)c1nnc(C)n1-2 [III-14] |  |  |  |  | 50 to 500 nM | 500 to 2500 nM
